Reference: patent publication US8580799B2 (priority 2008, dated 2013)

Assay: Measurement of logP values by HPLC on reversed phase columns (EEC directive 79/831 Annex V.A8)
Assay type: physicochemical
Conditions: for chromatographic logP: reversed phase HPLC column, HCOOH (formic acid) method, read-out: log P(HCOOH)
[1] = method [b]: LC-MS at pH 2.7 with 0.1% formic acid in water and acetonitrile, linear gradient 10% to 95% acetonitrile
[2] = method [a]: pH 2.3 with 0.1% phosphoric acid and acetonitrile as eluent

Row | Structure (SMILES) | logp [1] | other results
1 | CCCCCCN(C(=O)OC(C)(C)C)c1cccc(CON2C(=O)c3ccccc3C2=O)n1 | – | chromatographic logP: 5.48
2 | CCCCCCN(C(=O)OC(C)(C)C)c1cccc(CON)n1 | – | chromatographic logP: 3.42
3 | CCCCCCOC(=O)Nc1cccc(CON=C(c2ccccc2)c2nsnc2C)n1 [Example 23] | 5.99^[b] | –
4 | Cn1nccc1C(=NOCc1csc(C#CC2CC2)n1)c1ccccc1 [Example 62] | 3.87^[b] | –
5 | CCCNc1cccc(CON=C(c2ccccc2)c2nsnc2C)n1 [Example 34] | 2.11^[b] | –
6 | CCCCCCN(C(=O)OC(C)(C)C)c1cccc(CO)n1 [tert-butyl hexyl[6-(hydroxymethyl)pyridin-2-yl]carbamate] | – | chromatographic logP: 3.94
7 | CCCCCCC(=O)Nc1nc(CON=C(c2ccccc2)c2ccnn2C)cs1 [Example 56] | 4.18^[b] | –
8 | O=C(Cc1ccccc1)Nc1ccnc(CON=C(c2ccccc2)c2nsnc2C(F)(F)F)n1 [Example 15] | – | logp [2]: 4.09^[a]
9 | CCCCC#Cc1nc(CON=C(c2cccc(F)c2)c2nonc2C)cs1 [Example 46] | 5.59^[b] | –
10 | COCCOCC(=O)Nc1ccnc(CON=C(c2ccccc2)c2nsnc2C(F)(F)F)n1 [Example 13] | – | logp [2]: 3.46^[a]
11 | Cn1nccc1C(=NOCc1csc(N)n1)c1ccccc1 [Example 48] | 1.5^[b] | –
12 | CCCCCCNc1cccc(CON=C(c2cccc(F)c2)c2nonc2C)n1 [Example 42] | 3.57^[b] | –
13 | Cn1nccc1C(=NOCc1csc(NC(=O)CCc2ccccc2)n1)c1ccccc1 [Example 51] | 3.69^[b] | –
14 | CCCCC#Cc1nc(CON=C(c2ccccc2F)c2nonc2C)cs1 [Example 47] | 5.39^[b] | –
15 | CCCCCOC(=O)Nc1nc(CON=C(c2ccccc2)c2ccnn2C)cs1 [Example 60] | 4.16^[b] | –
16 | Cn1nccc1C(=NOCc1csc(NC(=O)Cc2ccccc2)n1)c1ccccc1 [Example 53] | 3.42^[b] | –
17 | CCNc1cccc(CON=C(c2ccccc2)c2nsnc2C)n1 [Example 33] | 1.89^[b] | –
18 | CCCCC#Cc1nc(CON)cs1 [4-[(aminooxy)methyl]-2-(hex-1-yn-1-yl)-1,3-thiazole] | – | chromatographic logP: 1.76
19 | O=C(CCCc1ccccc1)Nc1ccnc(CON=C(c2ccccc2)c2nsnc2C(F)(F)F)n1 [Example 12] | – | logp [2]: 4.65^[a]
20 | CC(C)(C)C(=O)Nc1ccnc(CON=C(c2ccccc2)c2nsnc2C(F)(F)F)n1 [Example 16] | – | logp [2]: 4.24^[a]
21 | Cn1nccc1C(=NOCc1csc(NC(=O)OCCCCCl)n1)c1ccccc1 [Example 57] | 3.65^[b] | –
22 | CCCCCCOC(=O)Nc1nc(CON=C(c2ccccc2)c2ccnn2C)cs1 [Example 59] | 4.59^[b] | –
23 | Cc1nsnc1C(=NOCc1cccc(NC(=O)OCCCCC(F)(F)F)n1)c1ccccc1 [Example 28] | 4.97^[b] | –
